Test results taken from PMC12775124, “CUL4A-DDB1-DCAF10 is an N-recognin for N-terminally acetylated Src kinases” (Nature Communications, 2026).

How the values were obtained:
[1] = system: DCAF10; assay: Peptide pull-down with quantitative MS, HeLa lysate, DCAF10; format: binding, human (HeLa); details: HeLa lysate, Nt-Ac vs Nt-free peptides
Description: Beads presenting 10-residue synthetic Nt-peptides of proteins of interest in their free (Nt-free) or modified (e.g., Nt-acetylated) versions were incubated with lysates from HeLa cells, followed by MS-based quantification of retained binders (Fig. 1a).
Biotinylated 10-mer Nt-peptides (Nt-free, Nt-acetylated, and, where indicated, Nt-myristoylated; sequences in Supplementary Table 1) were synthesized with a C-terminal Lys3 spacer and biotin, immobilized on magnetic streptavidin beads, and incubated with HeLa or mouse liver lysates. After standardized washes, bound proteins were on-bead reduced/alkylated, digested with LysC/trypsin, desalted, and analysed by LC-MS in DIA mode (Orbitrap Exploris 480) as described previously[24]. Variants included endogenous Nt-sequences, swap and mutant (Ala-Ala-Ala or Nt-amino acids) peptides, and pairwise comparisons of conditions of interest.
All MS experiments were performed as independent biological triplicates. Relative protein quantification was carried out using the label-free algorithm integrated in DIA-NN[53], and statistical testing was performed in Perseus using a two-sided Student’s t test with permutation-based multiple-testing-adjusted p-values[53],[54], as specified in the figure legends. […] Volcano blots were visualized with RStudio (version 2023.06.0). […] Cell experiments were performed as biological replicates, and binding assays as independent assays. […] Data are presented as mean ± s.d. Fold changes are reported as the ratio of the normalized value for the condition of interest to the normalized control value, with mean ± s.d. computed across biological replicates.

[2] = system: GST-DCAF10; assay: Streptavidin pull-down of GST-DCAF10 with biotinylated Nt-peptides; format: binding, human; details: 0.5 µM GST-DCAF10, 5 µM peptide, 1 h RT; WB
Description: To confirm direct interactions between peptides and DCAF10, we performed pull-down assays using bead-bound Nt-peptide variants incubated with purified full-length GST-DCAF10 or GST as a negative control (Fig. 2m–p and Supplementary Fig. 4a).
230 of 1:100), and desalted/concentrated on C18 reversed phase stage tips as previously
MS measurements settings are stated in MS measurements and raw file
BL21(DE3) cells (Thermo Fisher Scientific,
240 agar) plate containing 100 μg/mL ampicillin and 34 μg/mL chloramphenicol, then
Terrific broth (TB) medium (24 g/L yeast extract,
243 20 g/L tryptone, glycerol 4 mL/L, 100 mL/L phosphate buffer containing 0.17 M KH2PO4
244 and 0.72 M K2HPO4) was used to prepare a 1:100 dilution of the starter culture, and OD600
At OD600 = 1, protein induction was initiated by adding 1 mM
247 day, pellets were homogenized and lysed in glycerol lysis buffer (20 mM Tris-HCl pH
Lysis was performed on ice for 30 min, followed by
250 sonication (7 × 20 sec pulses with 20 sec breaks on ice) using a Bandelin sonoplus
Lysates were centrifuged at 4°C for 1 h
253 medium culture was lysed in 20 mL of supernatant (collected in 20 × 1 mL tubes). GST
255 agarose bead; Thermo Fisher Scientific, Waltham, MA, USA). For each 1 mL of
100 μL of GST magnetic beads
257 were washed twice with 500 μL of wash buffer (125 mM Tris-HCl pH 7.4, 150 mM NaCl,
The lysis supernatant was diluted 1:1 with
259 wash buffer, and incubated with the beads on an end-over-end rotator for 1 h at 25°C.
260 After incubation, the supernatant was removed, and the beads were washed twice with
Protein elution was then performed by incubating
263 pH 7.4, 250 mM NaCl, 0.3% Triton X-100) for 30 min at 25°C on an end-over-end rotator.
265 under the same conditions. Elution fractions were pooled and concentrated by
266 centrifugation (4°C, 25 min, 4500 rpm) using a 30 kDa cut-off concentrator (Merck
267 Millipore, #UFC803008, Darmstadt, Germany). Purified proteins were analyzed by
268 colloidal Coomassie stain, WB and MS.
270 Streptavidin pull-downs with GST-DCAF10 and biotinylated peptides
271 Streptavidin magnetic beads (DynabeadsTM MyOneTM Streptavidin T1; Thermo Fisher
272 Scientific, Waltham, MA, USA) were washed twice with 500 μL of wash buffer (125 mM
273 Tris-HCl pH 7.4, 150 mM NaCl, 0.1% Triton X-100). An excess of peptides was added
274 (to ensure full occupancy of the beads) and incubated for 30 min at RT. After peptide
275 binding, beads were again washed three times with 500 μL of wash buffer. The pull-down
276 was then performed in a 100 μL reaction volume with final concentrations of 0.5 µM
277 GST-DCAF10 and 5 µM peptide. GST-DCAF10 or GST alone (as a control) was added
278 to the peptide-streptavidin beads and incubated on a rotator for 1 h at RT. After incubation,
279 the beads were washed three times with 500 μL of wash buffer and resuspended in 4x
280 Laemmli buffer. 1/5 of the input (GST-DCAF10 and GST) and 9/10 of the sample were
281 loaded on a 10% SDS gel and blotted with anti-GST and anti-DCAF10 antibodies, while
282 1/10 was loaded on a 15% SDS gel and blotted with anti-streptavidin antibody to assess
283 equal peptide loading.
285 Streptavidin Sepharose High Performance, GE Healthcare, Chicago, IL, USA) were used.
286 After washing with a high salt wash buffer without detergents (125 mM Tris-HCl pH 7.4,
287 400 mM NaCl), an excess of peptides was added and incubated for 30 min at RT. For each
288 reaction, 10 µL of slurry beads were used. After peptide-binding, beads were again
289 washed once with a high salt wash buffer without detergents and twice with binding buffer
290 without detergents (125 mM Tris-HCl pH 7.4, 150 mM NaCl). The pull-downs were
291 performed in a 100 μL reaction volume in binding buffer without detergents with a final
292 concentration of 0.5 µM GST-DCAF10 and incubated rotating for 1 h at RT. After
293 incubation, the beads were washed five times with 500 μL of high salt wash buffer without […]

[3] = system: CUL4A-DDB1-DCAF10; assay: In vitro ubiquitination of Lyn-GFP variants by CUL4A-DDB1-DCAF10; format: biochemical, human; details: Lyn-GFP variants, NMT1/2 siRNA
Description: Lyn^WT-GFP was ubiquitinated by the WT E3 complex in both conditions; however, unlike in vitro ubiquitination with endogenous Lyn (Fig. 5c, d), ubiquitination increased ~6-fold under NMT1/2 siRNA conditions. This is consistent with DCAF10 being limiting and overexpressed Lyn-GFP, accumulating an acetylated fraction available for DCAF10 in vitro. Then, we performed IPs for all Nt variants under NMT1/2 siRNA conditions (Fig. 6d, h–i). […] In vitro ubiquitination assays using untreated cell lysates led to similar results (Supplementary Fig. 7h, i).
Reactions contained E1, UBCH5B (E2), ubiquitin, Mg-ATP in ligation buffer and were incubated with bead-bound substrates, followed by washing and immunoblot detection of ubiquitinated species (anti-ubiquitin), with loading controls (anti-Lyn, -Fyn, -Src or -GFP) (n = 3 independent enzymatic assays). Complete reagent lists, complex preparation, substrate IP conditions, wash buffers, and gel/blot parameters are provided in the Supplementary Methods and Tables.
357 (v/v) glycerol, 2 mM TCEP, supplemented with Protease Inhibitor Cocktail), and lysed
358 by sonication. Lysates were cleared by centrifugation at 28,000 rpm for 45 min at 4 °C
359 using a JA-30.50 rotor (Beckman Coulter, Brea, CA, USA). The cleared and filtered (0.8
360 µm) lysate was applied to 1 mL of Strep-Tactin®XT 4Flow® resin (iba), pre-equilibrated
361 once with wash buffer (100 mM Tris-HCl pH 8.0, 150 mM NaCl, 1 mM EDTA) and lysis
362 buffer. The lysate was incubated on a tube roller for 16 h at 4 °C. After incubation, beads
363 were washed with 50 mL of lysis buffer. Bound proteins were eluted with 10 mL of lysis
364 buffer supplemented with 50 mM biotin, after 15 min incubation on a tube roller at 4 °C.
366 Superdex 200 10/300 or 16/60 SEC column (GE Healthcare, Chicago, IL, USA),
367 preequilibrated in SEC buffer (250 mM Tris pH 7.5, 250 mM NaCl, 10% (v/v) glycerol,
370 Purified proteins were visualized during and after the purification by SDS-gels containing
371 TCE (2,2,2-trichloroethanol)62. The identity of proteins was confirmed by WB and MS.
373 In vitro ubiquitination assays
374 The in vitro ubiquitination assays were performed as previously described8. In brief,
375 E1 (50 nM), UBCH5B (250 nM), ubiquitin (1.5 µg), Mg-ATP (3 mM), ligation buffer,
376 and water were pre-mixed. The premix was divided, and either CUL4A-RBX1-
378 RBX1DDB1 (-DCAF10) (250 nM each) was added. 15 μL of each premix were incubated
379 with substrates (endogenous Lyn or Lyn-GFP constructs) bound to beads for 1 h at 30°C
380 with shaking. Samples were then washed four to five times with a buffer containing 50 […]
382 EDTA, and loaded on a gradient gel (4–15%). Ubiquitination of substrates was assessed
383 by WB using an anti-ubiquitin antibody. Equal substrate loading was evaluated by anti- […]

[4] = system: DLD-1 Flp-In T-REx and Lyn KO cells; assay: Level of Lyn / Lyn-GFP variants after NMT1/2 and DCAF10 siRNA, Western blot; format: cell-based, human; details: WB/vinculin, n = 3
Description: To further investigate the role of the Nt-amino acid and its modification in DCAF10 recognition and DCAF10-dependent ubiquitination, we used the CRISPR/Cas9 technique to knock out Lyn in DLD-1 cell lines with T-REx Flp-In background (DLD-1 Lyn KO Flp-In T-REx) (Supplementary Fig. 7a–c). We then integrated Lyn^WT-GFP and two Nt-mutants (Lyn^G2A-GFP and Lyn^G2P-GFP) under a doxycycline-inducible promoter into the Flp-In cassette. Alanine (G2A) is expected to be efficiently acetylated by NatA, generating an Nt-acetylated Lyn mutant. Conversely, the proline (G2P) mutant, is expected not to be acetylated and may retain a free N-terminus[3],[36],[37]. Doxycycline-induced expression of Lyn^WT-GFP, Lyn^G2A-GFP, and Lyn^G2P-GFP was confirmed by Western blot, MS, and fluorescence microscopy (Supplementary Figs. 7d, e; 8a and Supplementary Data 6). While all constructs were ~2–5-fold higher expressed than endogenous Lyn, G2A and G2P were further elevated relative to WT, which may reflect increased stability when Nt-Gly/acetylation is altered (Supplementary Fig. 7e). […] Lyn^WT-GFP mirrored the behavior of endogenous Lyn under NMT1/2 siRNA treatment. Lyn levels decreased with NMT1/2 KD, but were rescued when siRNAs targeting both NMT1/2 and DCAF10 were applied (Fig. 6a, b). […] The weaker reduction of Lyn^WT-GFP may result from Lyn overexpression and the limiting availability of DCAF10.
Fig. 6 N-terminal glycine mutation abolishes DCAF10-dependent stability and ubiquitination. a DLD-1 Flp-In T-REx cells and Lyn KO cells expressing Lyn^WT-GFP, Lyn^G2A-GFP, or Lyn^G2P-GFP were induced for 24 h with 100 ng/mL doxycycline. Cells were treated with NMT1/2 siRNA, DCAF10 siRNA, or both (or left untreated) for 72 h. Representative WBs are shown. Filled circles represent siRNA treatment, empty circles untreated. b WB quantifications of Lyn levels normalized to vinculin. Purple: untreated with NMT1/2 siRNA; blue: treated with NMT1/2 siRNA. Mean ± s.d. with individual data points are shown (n = 3 independent biological replicates). c Schematic of ubiquitination experiments. Created in BioRender. […] Lysates have been treated with NMT1/2 RNAi for 72 h. i Quantification of in vitro ubiquitination assays. Mean ± s.d. with individual data points are shown (n = 3 independent ubiquitination assays). Volcano plots of Lyn-GFP^WT binding partners: j NMT1/2 siRNA ± doxycycline (Dox); k Control ± doxycycline; l NMT1/2 siRNA vs. control both with doxycycline. The −log10 adjusted p-value (two-sided Student’s t test with permutation-based multiple-testing correction; y-axis) is plotted against the log2 fold change (x-axis). Threshold for significance: −log10 p-value ≥ 1.3 (p ≤ 0.05), log2 fold change ≤ −1 or ≥ 1. DCAF10 and Lyn-GFP are marked in green, significant binding partners in purple and in blue, respectively. Source data are provided as a Source data file.
DLD-1 Lyn knockout (KO) Flp-In T-REx cells were generated by CRISPR/Cas9 electroporation using two guide RNAs targeting the LYN locus. Editing and clone validation were confirmed by genomic sequencing, Western blotting, and MS[51]. Stable cell lines expressing doxycycline-inducible Lyn-GFP (WT, G2A, or G2P) were established by FRT/Flp-mediated recombination and validated by antibiotic selection, Western blotting, and fluorescence microscopy. Detailed protocols are provided in the Supplementary Methods and Tables.
461 electroporated using the CM137 program. Following electroporation, the cells were kept […]

GAVTDDEVIRKK [Ac-THOC7, Nt-peptide of THOC7, Nt-acetylated]
DCAF10 binding (in words) [1]: did not bind DCAF10 significantly | Binding to GST-DCAF10 (in words) [2]: neither Nt-acetylated nor Nt-free THOC7 peptides or GST alone bound DCAF10

RBX1^mut: catalytically inactive variant complex (RBX1 C75A, H77A)
In vitro ubiquitination (in words) [3]: failed to ubiquitinate any variant above background

endogenous Lyn: endogenous Lyn kinase of DLD-1 cells
Level decrease following NMT1/2 KD ([4]; DLD-1, 72 h NMT1/2 siRNA, 24 h doxycycline 100 ng/mL, average): 31% | Level increase upon combined NMT1/2 and DCAF10 KD ([4]; DLD-1, 72 h siRNA): 36.5%
